Experimental data as given in patent publication US8143270B2, “2-amino 1H-in-imidazo ring systems and methods” (3M Innovative Properties Company, priority 2004, dated 2012).
Structures can show the parent of a compound that is named as a salt.

Test system: mouse macrophage cell line Raw 264.7
Assay: TNF-α inhibition in mouse cells
Format: cell-based
Settings: Raw 264.7 cells stimulated by lipopolysaccharide (LPS); single concentration 5 μM or dose response 0.03-10 μM; TNF-α by ELISA
Description: The compounds of Formulas I, II, III, IV, V, VI, VII, and VIII are useful as immune response modifiers (IRMs) due to their ability to modulate cytokine biosynthesis (e.g., induce or inhibit the biosynthesis or production of one or more cytokines) and otherwise modulate the immune response when administered to animals. Compounds can be tested per the test procedures described in the Examples Section. Compounds can be tested for induction of cytokine biosynthesis by incubating human peripheral blood mononuclear cells (PBMC) in a culture with the compound(s) at a concentration range of 30 to 0.014 μM and analyzing for interferon (α) or tumor necrosis factor (α) in the culture supernatant. Compounds can be tested for inhibition of cytokine biosynthesis by incubating mouse macrophage cell line Raw 264.7 in a culture with the compound(s) at a single concentration of, for example, 5 μM and analyzing for tumor necrosis factor (α) in the culture supernatant. The ability to modulate cytokine biosynthesis, for example, induce the biosynthesis of one or more cytokines, makes the compounds useful in the treatment of a variety of conditions such as viral diseases and neoplastic diseases, that are responsive to such changes in the immune response. […]
(§1) Raw cells (ATCC) are harvested by gentle scraping and then counted. […]
The compounds are solubilized in dimethyl sulfoxide (DMSO). […] LPS (Lipopolysaccaride from Salmonella typhimurium, Sigma-Aldrich) is diluted with colorless RPMI to the EC70 concentration as measured by a dose response assay. […]
Following the incubation the supernatant is removed with a pipet. TNF-α concentration is determined by ELISA using a mouse TNF-α kit (from Biosource International, Camarillo, Calif.). […]
as §1
The compounds are solubilized in dimethyl sulfoxide (DMSO). […] LPS (Lipopolysaccaride from Salmonella typhimurium, Sigma-Aldrich) is diluted with colorless RPMI to the EC70 concentration as measured by dose response assay. […]

SMILES | inhibition of production of tumor necrosis factor α (TNF-α)
CCNc1nc2c(N)nc3ccccc3c2n1CC(C)(C)O [Example 7, 1-[4-Amino-2-(ethylamino)-1H-imidazo[4,5-c]quinolin-1-yl]-2-methylpropan-2-ol] | inhibiting production of tumor necrosis factor α (TNF-α)
COCCNc1nc2c(N)nc3ccccc3c2n1CC(C)(C)O [Example 8, 1-{4-Amino-2-[(2-methoxyethyl)amino]-1H-imidazo[4,5-c]quinolin-1-yl}-2-methylpropan-2-ol] | inhibiting production of tumor necrosis factor α (TNF-α)
COCCCNc1nc2c(N)nc3ccccc3c2n1CC(C)(C)O [Example 9, 1-{4-Amino-2-[(3-methoxypropyl)amino]-1H-imidazo[4,5-c]quinolin-1-yl}-2-methylpropan-2-ol] | inhibiting production of tumor necrosis factor α (TNF-α)

Test system: not given
Assay: not given
Settings: not given

SMILES | melting point
CC(C)(O)Cn1c(N)nc2c(N)nc3ccccc3c21 (as salt: hydrobromid) [Example 2, 1-(2,4-Diamino-1H-imidazo[4,5-c]quinolin-1-yl)-2-methylpropan-2-ol hydrobromide] | > 230 °C
CC(C)Cn1c(N)nc2c(N)nc3ccccc3c21 [Example 1, 1-(2-Methylpropyl)-1H-imidazo[4,5-c]quinoline-2,4-diamine] | > 250 °C
CC(C)(Cn1c(N)nc2c(N)nc3ccccc3c21)NS(C)(=O)=O [Example 3, N-[2-(2,4-Diamino-1H-imidazo[4,5-c]quinolin-1-yl)-1,1-dimethylethyl]methanesulfonamide] | > 230 °C
Nc1nc2ccccc2c2c1nc(N)n2Cc1ccccc1 [Example 4, 1-Benzyl-1H-imidazo[4,5-c]quinoline-2,4-diamine] | 254 to 256 °C
CCNc1nc2c(N)nc3ccccc3c2n1CC(C)C [Example 6, N^2-Ethyl-1-(2-methylpropyl)-1H-imidazo[4,5-c]quinoline-2,4-diamine] | 188 to 190 °C
CCNc1nc2c(N)nc3ccccc3c2n1CC(C)(C)O [Example 7, 1-[4-Amino-2-(ethylamino)-1H-imidazo[4,5-c]quinolin-1-yl]-2-methylpropan-2-ol] | 233 to 235 °C
COCCNc1nc2c(N)nc3ccccc3c2n1CC(C)(C)O [Example 8, 1-{4-Amino-2-[(2-methoxyethyl)amino]-1H-imidazo[4,5-c]quinolin-1-yl}-2-methylpropan-2-ol] | 176 to 178 °C
COCCCNc1nc2c(N)nc3ccccc3c2n1CC(C)(C)O [Example 9, 1-{4-Amino-2-[(3-methoxypropyl)amino]-1H-imidazo[4,5-c]quinolin-1-yl}-2-methylpropan-2-ol] | 209 to 210 °C
CCNc1nc2c(N)nc(C)c(C)c2n1CC(C)C [Example 16, N^2-Ethyl-6,7-dimethyl-1-(2-methylpropyl)-1H-imidazo[4,5-c]pyridine-2,4-diamine] | 168 to 170 °C
CC(C)(O)Cn1c(N)nc2c(N)nc3c(c21)CCCC3 [Example 18, 1-(2,4-Diamino-6,7,8,9-tetrahydro-1H-imidazo[4,5-c]quinolin-1-yl)-2-methylpropan-2-ol] | > 270 °C
CC(C)(F)Cn1c(N)nc2c(N)nc3ccccc3c21 [Example 43, 1-(2-Fluoro-2-methylpropyl)-1H-imidazo[4,5-c]quinoline-2,4-diamine] | 251 °C
C[C@H](c1ccccc1)n1c(N)nc2c(N)nc3ccccc3c21 [Example 44, 1-[(1R)-1-Phenylethyl]-1H-imidazo[4,5-c]quinoline-2,4-diamine] | 156 to 160 °C
C[C@@H](c1ccccc1)n1c(N)nc2c(N)nc3ccccc3c21 [Example 45, 1-[(1S)-1-Phenylethyl]-1H-imidazo[4,5-c]quinoline-2,4-diamine] | 135 to 140 °C
Nc1nc2ccccc2c2c1nc(N)n2CC1(O)CCC1 [Example 46, 1-[(2,4-Diamino-1H-imidazo[4,5-c]quinolin-1-yl)methyl]cyclobutanol] | 295 °C (dec.)
COC(=O)Nc1nc2c(N)nc3ccccc3c2n1CC(C)(C)O [Example 181, Methyl [4-amino-1-(2-hydroxy-2-methylpropyl)-1H-imidazo[4,5-c]quinolin-2-yl]carbamate] | 255 to 258 °C (dec.)
